Tested on: outer membrane of Salmonella
Test: Outer membrane permeabilization (NPN fluorescence)
Type: cell-based, Salmonella enterica serovar Typhimurium strain SL1344
Settings: test compounds 10 µM final, added at 14 min; NPN 10 µM; 5 mM HEPES, 5 mM glucose pH 7.2; CTAB and Polymyxin B positive controls
Description: The experiments were performed by modifying previously published protocols ([48]–[50]). Salmonella (WT SL1344, JVS-1574) were grown overnight in 4 ml MHB medium at 37 °C (with shaking at 220 rpm). Then the culture was diluted 1:100 and grown until OD 0.5 (∼2×10^8 cfu/mL). This culture was harvested and washed two times with 5mM HEPES and further diluted to OD 0.2 in 5 mM HEPES supplemented with 5 mM Glucose (pH 7.2). These cells were then incubated with N-phenylnaphthylamine (NPN) (Sigma, USA) at a final concentration of 10 µM. 190 µl of NPN treated cells were transferred into 96-well back plates with transparent bottom and fluorescence (excitation = 350 nm, emission = 420 nm) was recorded for 60 min (reading was performed every minute) using a Synergy H1 plate reader (Biotek). On the fourteenth minute, 10 µl of the test compounds (10 µM final concentration) was added into the wells. CTAB (Sigma, USA) 200 µM or Polymyxin B (Sigma, USA) 10 µg/ml (final concentration of 0.5 µg/ml) were used as positive controls, while water was used as negative control. The fluorescence of the wells were monitored using the same settings as above. The experiment was performed three times and Figure 10 is based on a single representative experiment.

| Molecule | Outer membrane permeabilization, NPN fluorescence (in words) |
| --- | --- |
| CCCCCCCCCCCCCCCC[N+](C)(C)C.[Br-] [CTAB, reference compound] | rapid increase in florescence |
| Polymyxin B [reference compound] | rapid increase in florescence |

Reference: article doi:10.1101/2023.07.11.548539v1, “A side-by-side comparison of peptide-delivered antisense antibiotics employing different nucleotide mimics” (bioRxiv, 2023)
